Assay results reported in patent US20230026259A1, “CA2 COMPOSITIONS AND METHODS FOR TUNABLE REGULATION” (Obsidian Therapeutics, Inc., priority 2019, published 2023).

Assays:
Type in all cases: cell-based
[1] = test system: NIH3T3 cells; test: Destabilization mutant screening of human CA2 linked to GFP, ligand response by FACS (Valdecoxib, Celecoxib, Acetazolamide)
Protocol: To identify destabilizing mutations of human CA2 that are stabilized upon ligand binding to CA2, two rounds of mutant screening were performed, using a lentivirus CA2 mutant library provided by Genscript (China). These methods were used to generate a library of mutant polypeptides using mutagenesis primers and error prone PCR. Lentiviral vectors expressing the template, wild-type human CA2 operably linked to GFP(OT-001986) was also provided by Genscript along with the CA2 mutant library. The library was packaged into lentivirus, transduced into NIH3T3 cells at a multiplicity of infection (MOI) of approximately 0.3 and select stable cell pools were derived by selecting with selection marker puromycin.
To identify cell pools containing destabilizing mutants of CA2 that are stabilizing when CA2 is bound to its corresponding ligand, cells were sorted using FACS. In the initial round, the bottom 15% of population that was GFP negative in the absence of ligand was selected. Cells were expanded and then treated with 10 μM Celecoxib for 24 hours and harvested for cell sorting. The top 11% GFP positive cells which were also responsive to ligand treatment compared to untreated were collected. Celecoxib was removed from the cultures and replaced with DMSO. […] Genomic DNA was isolated and amplified CA2 mutants were reintroduced to the lentiviral vectors where CA2 was operably linked to GFP. The constructs were transduced into NIH3T3 cells with lentivirus vectors for each clone. The cells were treated with 10 μM Valdecoxib or 10 μM Celecoxib for 24 hours and analyzed by FACS. […] In Table 25, the Construct ID (OT-XXXXXX) refers to the construct which includes the referenced CA2 mutant and the Library ID (LibCXXXXXX) refers to the CA2 mutant itself.
The response of NIH3T3 cells to varying doses of Valdecoxib or Celecoxib for 24 hours was measured and analyzed by FACS.
Clones treated with different ligands were compared to examine the behavior of each mutant with the ligands.

[2] = test system: NIH3T3 cells; test: Immunoblotting of cell lysates for GFP after ligand treatment; conditions: 24 hours
Protocol: The protein expression in the presence of ligand was measured by immunoblotting the cell lysates for GFP.
The protein expression in the presence of ligand was measured by immunoblotting cell lysates for GFP.

[3] = test system: NIH3T3 cells; test: Destabilization mutant screening of human CA2 linked to GFP, ligand response by FACS (Valdecoxib, Celecoxib, Acetazolamide); remark: listed apart in the source
[4] = NIH3T3, Celecoxib 0 μM, 24 hours
[5] = NIH3T3, Celecoxib 0.03 μM, 24 hours
[6] = NIH3T3, Celecoxib 0.1 μM, 24 hours
[7] = NIH3T3, Celecoxib 0.3 μM, 24 hours
[8] = NIH3T3, Celecoxib 1 μM, 24 hours
[9] = NIH3T3, Celecoxib 3 μM, 24 hours
[10] = NIH3T3, Celecoxib 10 μM, 24 hours
[11] = NIH3T3, Celecoxib 30 μM, 24 hours
[12] = NIH3T3, Valdecoxib 0 μM, 24 hours
[13] = NIH3T3, Valdecoxib 0.03 μM, 24 hours
[14] = NIH3T3, Valdecoxib 0.1 μM, 24 hours
[15] = NIH3T3, Valdecoxib 0.3 μM, 24 hours
[16] = NIH3T3, Valdecoxib 1 μM, 24 hours
[17] = NIH3T3, Valdecoxib 3 μM, 24 hours
[18] = NIH3T3, Valdecoxib 10 μM, 24 hours
[19] = NIH3T3, Valdecoxib 30 μM, 24 hours

With “CA2 (aa 2-260 of WT, L197P) [LibC000186]” the “Median PE” value ([1]; NIH3T3, 10 μM Celecoxib) was 8156, the “SR (stabilization ratio)” value ([1]; NIH3T3, 10 μM Celecoxib vs DMSO) was 10 and the “Median PE” value ([1]; NIH3T3, 10 μM Valdecoxib) was 6570. For the same substance, the “SR (stabilization ratio)” value ([1]; NIH3T3, 10 μM Valdecoxib vs DMSO) was 8.05, the “Median FITC / Median PE” value ([1]; NIH3T3, Acetazolamide 0.03 μM, 24 hours) was 872 and the Fold change ([1]; NIH3T3, Acetazolamide 0.1 μM vs DMSO) was 1.18. For the same substance, the “Median FITC / Median PE” value ([1]; NIH3T3, Acetazolamide 0.1 μM, 24 hours) was 867, the Fold change ([1]; NIH3T3, Acetazolamide 0.3 μM vs DMSO) was 1.23 and the “Median FITC / Median PE” value ([1]; NIH3T3, Acetazolamide 0.3 μM, 24 hours) was 903. For the same substance, the Fold change ([1]; NIH3T3, Acetazolamide 1 μM vs DMSO) was 1.28, the “Median FITC / Median PE” value ([1]; NIH3T3, Acetazolamide 1 μM, 24 hours) was 936 and the Fold change ([1]; NIH3T3, Acetazolamide 3 μM vs DMSO) was 1.28. For the same substance, the “Median FITC / Median PE” value ([1]; NIH3T3, Acetazolamide 3 μM, 24 hours) was 943, the “MFI, comparative analysis” value ([1]; NIH3T3, Acetazolamide 10 μM) was 1189 and the Fold change ([1]; NIH3T3, Acetazolamide 10 μM vs DMSO) was 1.62. For the same substance, the “Median FITC / Median PE” value ([1]; NIH3T3, Acetazolamide 10 μM, 24 hours) was 1189, the “MFI, comparative analysis” value ([1]; NIH3T3, Acetazolamide 30 μM) was 1827 and the Fold change ([1]; NIH3T3, Acetazolamide 30 μM vs DMSO) was 2.49. For the same substance, the “Median FITC / Median PE” value ([1]; NIH3T3, Acetazolamide 30 μM, 24 hours) was 1827, the “Med (median fluorescence intensity)” value [1, 4] was 934 and the “SR (stabilization ratio)” value [1, 4] was 1. The “Med (median fluorescence intensity)” value [1, 5] was 1177, the “SR (stabilization ratio)” value [1, 5] was 1.26 and the “Med (median fluorescence intensity)” value [1, 6] was 1290. The “SR (stabilization ratio)” value [1, 6] was 1.38, the “Med (median fluorescence intensity)” value [1, 7] was 1470 and the “SR (stabilization ratio)” value [1, 7] was 1.57. The “Med (median fluorescence intensity)” value [1, 8] was 2065, the “SR (stabilization ratio)” value [1, 8] was 2.21 and the “Med (median fluorescence intensity)” value [1, 9] was 4171. For the same substance, the “SR (stabilization ratio)” value [1, 9] was 4.47, the “Med (median fluorescence intensity)” value [1, 10] was 8202 and the “SR (stabilization ratio)” value [1, 10] was 8.78. For the same substance, the “Med (median fluorescence intensity)” value [1, 11] was 10200, the “SR (stabilization ratio)” value [1, 11] was 10.92 and the “MFI, comparative analysis, normalized to parental day 1” value ([1]; NIH3T3, Celecoxib μM (concentration not given)) was 7312.627. The “MFI, comparative analysis” value ([1]; NIH3T3, DMSO) was 734, the “Median PE” value ([1]; NIH3T3, DMSO) was 816 and the “SR (stabilization ratio)” value ([1]; NIH3T3, DMSO (reference)) was 1. The “Median FITC / Median PE” value ([1]; NIH3T3, DMSO, 24 hours (Acetazolamide experiment)) was 734, the “Med (median fluorescence intensity)” value [1, 12] was 934 and the “SR (stabilization ratio)” value [1, 12] was 1. For the same substance, the “Med (median fluorescence intensity)” value [1, 13] was 1223, the “SR (stabilization ratio)” value [1, 13] was 1.31 and the “Med (median fluorescence intensity)” value [1, 14] was 1217. For the same substance, the “SR (stabilization ratio)” value [1, 14] was 1.3, the “Med (median fluorescence intensity)” value [1, 15] was 1363 and the “SR (stabilization ratio)” value [1, 15] was 1.46. The “Med (median fluorescence intensity)” value [1, 16] was 1711, the “SR (stabilization ratio)” value [1, 16] was 1.83 and the “Med (median fluorescence intensity)” value [1, 17] was 3357. The “SR (stabilization ratio)” value [1, 17] was 3.59, the “Med (median fluorescence intensity)” value [1, 18] was 7890 and the “SR (stabilization ratio)” value [1, 18] was 8.45. For the same substance, the “Med (median fluorescence intensity)” value [1, 19] was 11800, the “SR (stabilization ratio)” value [1, 19] was 12.63 and the “MFI, comparative analysis, normalized to parental day 1” value ([1]; NIH3T3, Valdecoxib μM (concentration not given)) was 7034.458. The “stabilization with varying doses of Valdecoxib or Celecoxib” value ([1]; NIH3T3 cells, 24 hours, FACS) was “dose dependent stabilization”, the “GFP protein expression by immunoblot, Acetazolamide” value ([2]; NIH3T3 cells, 0.3, 1, 3, 10 or 30 μM Acetazolamide) was “stabilization of GFP with increasing ligand doses” and the “GFP protein expression by immunoblot, Celecoxib or Valdecoxib” value ([2]; NIH3T3 cells, 1, 3, 10 or 30 μM Celecoxib or Valdecoxib) was “stabilization of GFP with increasing ligand doses”. For the same substance, the Fold change ([3]; NIH3T3, Acetazolamide 0.03 μM vs DMSO) was 1.19 and the Fold change ([3]; NIH3T3, DMSO (reference), Acetazolamide experiment) was 1.
